Inhibition data for 2 compounds are collected here from US4451472A, “Inhibition of thromboxane synthetase with 3-(heteroalkyl)-indolyl-acrylic acid derivatives” (Pfizer Inc., priority 1981, dated 1984).

This assay deals with thromboxane B2 (TxB2) formation. In words: TxB2 generation in clotted whole blood of anaesthetized rabbits after intravenous dosing (method of Patrono et al., RIA). The following applies: Oryctolagus cuniculus, read-out: Percent Inhibition (%) of TxB2 formation; for inhibition at 1 mg/kg: 1.0 mg/kg i.v.; for inhibition at 0.3 mg/kg: 0.3 mg/kg i.v.; for inhibition at 0.1 mg/kg: 0.1 mg/kg i.v. Format: in vivo, New Zealand white rabbits. How it is done:
A number of in vivo tests in animals have also been described for evaluating potential anti-thrombotic drugs. For instance, the method of Patrono et al. is adapted to study the generation of TxB2 in whole blood samples removed from animals prior to and following drug treatment. Briefly, blood samples are taken into glass tubes and allowed to clot at 37° C. Serum is then separated by centrifugation and the samples stored at -40° C. until assayed for TxB2, when appropriate dilutions of ethanol deproteinized samples are thereafter analyzed by RIA. This technique is used in experiments with the test compounds to determine intravenous potency in anesthetized rabbits.
In this study, male New Zealand white rabbits (2.6-5.6 kg.) are anesthetized with sodium pentobarbitone (30 mg./kg., i.v.), followed by urethane (500 mg./kg., i.p.). After cannulation of the trachea, a carotid artery is catheterized for collection of the blood samples. The catheter is kept patent by slow infusion (0.2 ml./minutes) of sterile saline. Control carotid arterial blood samples are then taken at 30 minutes and at 5 minutes prior to administration of the test compound or vehicle (0.9% w./v. NaCl, 0.2 ml./kg.) via a marginal ear vein. Three groups of rabbits are employed in the test. The first group is given the test compound at 0.03 mg./kg., followed one hour later by a second dose at 0.1 mg./kg. Similarly, the second group is administered the test compound at 0.3 mg./kg., followed by a second dose (one hour later) at 1.0 mg./kg. The third group is treated with the vehicle alone, followed one hour later by a further vehicle injection. Carotid arterial blood samples are then taken at various time intervals after all doses. At each time point, a 1.0 ml. blood sample is taken into a glass tube, without anticoagulant, for TxB2 determination. For the latter determination, the blood sample is allowed to clot during a two-hour incubation period at 37° C. (which preliminary experiments had already shown to give a maximum TxB2 production) and the resulting serum obtained by centrifugation. The serum samples are then processed through the TxB2 -RIA after deproteinization with ethanol and dilution with Isogel Tris buffer.

Like-named read-outs stand apart in the source and are kept apart here.

The term inhibition denotes the percentage by which the read-out fell short of the control. On to `Cc1c(Cn2ccnc2)c2ccccc2n1/C=C/C(=O)O` [Ex. 1, E-3-{1-[2-methyl-3-(1-imidazolyl-methyl)]indolyl}-acrylic acid], for which the inhibition at 1 mg/kg came to 93% (2 min, 2 min); 96% (0.25 h, 15 min); 95% (0.75 h, 45 min); 95% (1.25 h, 75 min). In addition, the inhibition at 0.3 mg/kg was 93% (0.25 h, 15 min) and 93% (0.5 h, 30 min).
On to `Cc1c(Cc2cccnc2)c2ccccc2n1/C=C/C(=O)O` [Ex. 2, E-3-{1-[2-methyl-3-(3-pyridylmethyl)]indolyl}-acrylic acid], for which the inhibition at 0.3 mg/kg (2 min, 2 min) was 95%; the inhibition at 0.3 mg/kg (0.25 h, 15 min) was 98%; the inhibition at 0.3 mg/kg (0.75 h, 45 min) worked out at 93%; the inhibition at 0.3 mg/kg (1.25 h, 75 min) turned out to be 90%. Further, the inhibition at 1 mg/kg (2 min, 2 min) turned out to be 97%; the inhibition at 1 mg/kg (0.25 h, 15 min) turned out to be 94%; the inhibition at 1 mg/kg (0.75 h, 45 min) turned out to be 97%; the inhibition at 1 mg/kg (1.25 h, 75 min) was 95%. Besides, the inhibition at 0.1 mg/kg is 81% (0.25 h, 15 min) and 82% (0.5 h, 30 min).
